Counter-ions that a name gives are not always drawn.
Experiments:
[1] = system: heart rate of guinea pigs under urethane anesthesia; experiment: Activity on heart frequency of anesthetized guinea pigs; type: in vivo, guinea pig; conditions: ECG
Procedure: 1. Activity on heart frequency of anesthetized guinea pigs:
The heart rate of guinea pigs under urethane anesthesia was registered by an electrocardiogram. The test compound was administered intravenously at increasing dosage increments between 0.5 and 20 mg/kg.

[2] = system: isolated, spontaneously beating auricles of guinea pigs; experiment: Effect on heart rate in the isolated auricle of the guinea pig; type: cell-based; conditions: Cavia porcellus; 10^-5 g/ml in organ bath, tyrode solution, 30° C., average of 5 auricles; read-out: Change in heart rate in %
Procedure: 2. Effect on heart rate in the isolated auricle of the guinea pig:
The effect on isolated, spontaneously beating auricles of guinea pigs of male and female sex having a body weight between 300 and 400 gm were investigated in an organ bath filled with tyrode solution. The nutritive solution was infused with carbogen (95% of O2 and 5% of CO2) and maintained at 30° C. The contractions were registered isometrically with a Statham-Force-transducer on a Grass-polygraph. The test compound was added to the organ bath so that the final concentration was 10^-^5 g/ml in each case. 5 auricles were used for each solution.
The following table gives the percentage decrease in the heart rate from an average of 5 auricles at a test compound concentration of 10^-^5 g/ml).

Acute toxicity in mice = conditions: mouse, in vivo, observation time 14 days
Procedure: The acute toxicity of the compounds in question was determined in mice (observation time: 14 days) after oral or intravenous application. The LD50 was calculated from the percentage of animals which died after different doses within the observation time (see J. Pharmacol. exp. Therap. 96, 99 (1949)): […]

Row | Compound | Percentage change in heart rate ([1]; 0.5 mg/kg i.v.) [%] | Percentage change in heart rate ([1]; 1.0 mg/kg i.v.) [%] | Percentage change in heart rate ([1]; 2.0 mg/kg i.v.) [%] | Percentage change in heart rate ([1]; 5.0 mg/kg i.v.) [%] | Percentage change in heart rate ([1]; 10.0 mg/kg i.v.) [%] | Percentage change in heart rate ([1]; 20.0 mg/kg i.v.) [%] | inhibition at 10 µg/mL [2] [%] | LD50 at 336 h (Acute toxicity in mice; iv) [mg/kg] | LD50 at 336 h (Acute toxicity in mice; po) [mg/kg]
1 | COc1ccc(CCN(C)CCCN2Cc3cc(OC)c(OC)cc3C2=O)cc1OC [A, 5,6-Dimethoxy-2N-(3-[α-(3,4-dimethoxy)-phenylethyl-methylamino]-propyl)-phthalimidine hydrochloride] | -23.5 | -36.1 | -47.2 | -51.6 | -59.1 | -67.2 | 52 | 98 | 1570
2 | COc1ccc(CCN(C)CCCN2Cc3cc(OC)c(OC)cc3S2(=O)=O)cc1OC [B, 5,6-Dimethoxy-2-(3-[α-(3,4-dimethoxy)-phenylethyl-methylamino]-propyl)-1,2-benzisothiazoline-1,1-dioxide hydrochloride] | -9.8 | -20.0 | -27.4 | -37.6 | -46.9 | -53.9 | 60 | 100 | 
3 | COc1cc2c(cc1OC)C(=O)N(CCCN(C)CCc1ccc3c(c1)OCO3)C2 [D, 5,6-Dimethoxy-2N-(3-[α-(3,4-methylenedioxy)-phenylethylmethylamino]-propyl)-phthalimidine hydrochloride] |  |  |  |  |  |  | 51 |  | 
4 | CN(CCCN1Cc2cc3c(cc2C1=O)OCCO3)CCc1ccc2c(c1)OCO2 [E, 5,6-Ethylenedioxy-2N-(3-[α-(3,4-methylenedioxy)-phenylethyl-methylamino]-propyl)-phthalimidine hydrochloride] |  |  |  |  |  |  | 48 |  | 
